Entries after “also recorded” stand apart in the source; their conditions may differ.
Tests used:
[1] = tested on: Met activation and downstream signaling to ERK; test: HGF-induced activation of Met and ERK in L3.6p1 cells (western blot); assay type: cell-based, human; conditions: HGF 10 ng/ml
Experimental: Serum-starved cells (24 hours) were induced with the growth factor HGF (10 ng/mL) at 37° C. for 5 minutes. Where indicated, the cells were treated with peptides (100 ng/ml) prior to induction at 37° C. for 10 minutes (100 ng/mL CD44v6 peptide or control peptide). Following the induction with HGF, cells were washed with ice-cold phosphate-buffered saline (PBS). To detect activated Met and Erk, cells were lysed in sodium dodecyl sulfate (SDS)-sample buffer containing 100 mM dithiothreitol (DTT), boiled and subjected to western blot analysis using antibodies against phospho-Met and ERK. The loading controls were performed on the same blot after stripping (62.5 mM Tris, pH 6.8, 2% SDS, 0.8% DTT) by probing with the Met respectively ERK antibody. Blots were stained using the enhanced chemiluminescence system (Thermo Fisher Scientific, Schwerte, Germany). Bands in western blot analysis were quantified with the program Image J (National Institutes of Health).
To expand the studies to human pancreatic tumors, the highly metastatic human pancreatic carcinoma cells L3.6p1 (Bruns, et al. Neoplasia (1999), 1(1):50-62) were investigated. These cells originate from the […] cells that have been passaged several times in the liver and the pancreas, a step that rendered them more and more metastatic. It was confirmed that Met is dependent on CD44v6 for its activation and signaling in these cells (FIG. 4A). The L3.6p1 cells were treated with HGF in the presence or absence of a human v6 peptide of SEQ ID NO: 2 or SEQ ID NO:6 and Met activation and downstream signaling to ERK was measured.

VEGF = test: Human VEGF in cell culture supernatant of L3.6p1 cells (Quantikine immunoassay); assay type: cell-based; conditions: 200 ng/ml peptide in the culture medium, 5 days
Experimental: Determination of human HGF and VEGF levels in cell culture medium of L3.6p1 cells were performed using the Quantikine Human HGF Immunoassay and Quantikine Human VEGF Immunoassay from […]. For this purpose 3×10^6 cells were cultured for 5 days in a 15 cm plate in the presence of the respective peptides as indicated. The supernatant (20 ml) was centrifuged (1200 rpm) and the assay was performed according to manufacturer's instructions.

Met = test: HGF-induced Met activation in HeLa cells (western blot); assay type: cell-based, human; conditions: HGF 25 ng/ml, peptide 10 minutes before induction
Experimental: (§1) FIG. 12: A: Activation of Met and signal transduction induced by HGF depends on CD44v6 in L3.6p1 cells. L3.6p1 cells were treated with the human v6 peptide (human v6 14mer) or the rat v6 peptide as control prior to induction with 10 ng/ml HGF. Activation of Met and ERK was determined in western blot. The numbers refer to the fold induction. The experiment was repeated at least 5 times. B: Activation of c-Met and signal transduction induced by HGF depends on CD44v6 HeLa cells. Starved HeLa cells respectively HT29 cells were incubated with the v6 peptide (human v6 14mer) or a control peptide for 10 minutes at 37° C. and then induced with 25 ng/ml of HGF for the indicated time points. Cells were then either lysed and the lysates were subjected to Western Blot analysis for phospho-Met and Met. C: Activation of c-Met and signal transduction induced by HGF depends on CD44v6 in HT29 cells. HGF-induced c-Met and Erk phosphorylation in HT29 was determined as described above using phospho-specific antibodies. […]
(§2) The contribution of CD44v6 to Met signaling in the human epithelial pancreatic cancer cells L3.6p1 (derived from Colo 357), the cervix carcinoma cells HeLa and the colon cancer cells HT29 were analysed using the CD44v6 peptide (v6 14mer; v6 5mer tested as well, data not shown).

[2] = tested on: c-Met and Erk phosphorylation; test: HGF-induced c-Met and Erk phosphorylation in HT29 cells (western blot); assay type: cell-based, human
Experimental: as §1, §2

ErbB receptors = test: ErbB ligand-induced Erk-kinase phosphorylation in HT29 cells; assay type: cell-based, human; conditions: 100 ng/ml peptide; for inhibition of EGF-dependent Erk phosphorylation: 20 ng/ml EGF
Experimental: (§3) Serum-starved HT29 cells were pre-incubated for 5 min with 100 ng/ml of a CD44v6-specific peptide (human v6 14mer) or a control peptide. Afterwards the cells were induced with 20 ng/ml of various ErbB ligands as indicated. The cell lysates were resolved by SDS-PAGE. Western-blotting was used to detect ErbB ligands-induced Erk-kinase phosphorylation.
as §3, with “of” for “of a”, “(pep1=14mer, pep2=5mer)” for “(human v6 14mer)”, “EGF or TGFα and lysed.” for “various ErbB ligands as indicated.”, “EGF and TGFα induced” for “ErbB ligands-induced”
For this purpose HT29 cells were serum-starved for 24 hours and pre-treated with the v6-specific or a control peptide. They were then induced with the indicated ErbB ligands. Erk-kinase phosphorylation was used as a read-out for receptor activation. All ligands could activate the Erk-kinase.

Erk phosphorylation = test: EGF- and TGFα-induced Erk phosphorylation in MCF7 cells; assay type: cell-based, human
[3] = tested on: L3.6p1 pancreatic carcinoma cells; test: Human orthotopic model, L3.6p1 cells in the pancreas of nude mice; assay type: in vivo, mouse; conditions: dose reduction experiment, 0.2 to 20 μg per injection three times per week for 3 weeks

Question: “KEQWFGNRWHEGYR [human 14mer, human CD44v6 14mer peptide]” was tested. Which “inhibition of HGF-induced activation (phosphorylation) of Met and ERK” value [1] did it give?
Answer: The value was “able to prevent activation of Met and of its downstream target Erk”.

Question: And the “inhibition of HGF-induced activation (phosphorylation) of Met and ERK” value ([1]; listed as SEQ ID NO:6)?
Answer: Its value is “Phosphorylation of both Met and ERK was inhibited”.

Question: What about the “hVEGF secretion by L3.6p1 cells” value (VEGF) of the same sequence?
Answer: The value was “can be blocked”.

Question: And the “inhibition of HGF-induced activation of Met and Erk” value (Met)?
Answer: Its value is “able to prevent activation of Met and of its downstream target Erk”.

Question: And the “inhibition of HGF-induced activation of Met and Erk” value [2]?
Answer: Its value is “able to prevent activation of Met and of its downstream target Erk”.

Question: What about the “inhibition of EGF-dependent Erk phosphorylation” value (ErbB receptors; listed as human v6 14mer) of the same sequence?
Answer: Its value is “inhibited”.

Question: What about the “inhibition of EGF-dependent Erk phosphorylation” value (ErbB receptors; listed as pep1) of the same sequence?
Answer: The value was “can be blocked”.

Question: What about the “inhibition of ER-dependent Erk phosphorylation” value (ErbB receptors; 20 ng/ml ER) of the same sequence?
Answer: Its value is “inhibited”.

Question: And the “inhibition of ErbB receptor induction via TGF-α, BC, Her, HB-EGF or AR (Erk phosphorylation)” value (ErbB receptors; 20 ng/ml ligand)?
Answer: The value was “completely independent of CD44v6”.

Question: And the “Erk phosphorylation upon EGF treatment” value (Erk phosphorylation)?
Answer: Its value is “blocking of Erk phosphorylation”.

Question: And the “Erk phosphorylation upon TGFα induction” value (Erk phosphorylation)?
Answer: Its value is “not upon TGFα induction”.

Question: What about the “size / growth of the primary tumor” value [3] of the same sequence?
Answer: Its value is “significant decrease of the size of the primary tumor; also recorded: reduces growth of the primary tumor”.
